How the values were obtained:
[1] = target: T1, F508delCFTR (Homo sapiens, UniProt P13569, DEL508-508); assay: Cell Surface Expression-Horse Radish Peroxidase (CSE-HRP) assay, test compound without co-corrector; type: cell-based; conditions: for Emax: maximum at any tested concentration, normalized to positive control, without co-corrector; for EC50: test compound without co-corrector;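 on Emax: percent of on-plate 2 µM positive control corrector response over DMSO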
T1 construct: expressed in transfected cells; host or cells: CFBE41o- human lung-derived epithelial cells (CFBE41o-F508delCFTR-HRP), doxycycline-inducible
Method in brief: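 Compound without co-corrector was tested at eight 3-fold concentrations, top 20 μM, for 18-24 h at 33° C on doxycycline-induced (0.5 μg/mL, 72 h) CFBE41o- F508delCFTR-HRP cells. After DPBS washes, luminol luminescence gave % activity relative to on-plate positive control minus DMSO; EC50 came from triplicate-plate sigmoidal fitting.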

[2] = target: T1, F508delCFTR; assay: Cell Surface Expression-Horse Radish Peroxidase (CSE-HRP) assay, test compound with co-corrector; type: cell-based; conditions: with 2 μM co-corrector; for Maximum % activity (with co-corrector): maximum at any tested concentration, normalized to positive control;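 on Maximum % activity (with co-corrector): percent of 2 µM positive control corrector over DMSO; co-corrector is that same compound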
Method in brief: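 Surface-expression read-out: luminol luminescence from an HRP tag in the fourth exofacial loop of F508delCFTR, in doxycycline-induced (0.5 μg/mL, 72 h) CFBE41o- cells. Compound plus 2 μM co-corrector added for 18-24 h at 33° C., 8-point 3-fold series up to 20 μM. EC50 from a sigmoidal fit with variable Hill slope, normalised to positive control, triplicate plates.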

T1 sequence (P13569 with tags, fused parts or gaps DEL508-508): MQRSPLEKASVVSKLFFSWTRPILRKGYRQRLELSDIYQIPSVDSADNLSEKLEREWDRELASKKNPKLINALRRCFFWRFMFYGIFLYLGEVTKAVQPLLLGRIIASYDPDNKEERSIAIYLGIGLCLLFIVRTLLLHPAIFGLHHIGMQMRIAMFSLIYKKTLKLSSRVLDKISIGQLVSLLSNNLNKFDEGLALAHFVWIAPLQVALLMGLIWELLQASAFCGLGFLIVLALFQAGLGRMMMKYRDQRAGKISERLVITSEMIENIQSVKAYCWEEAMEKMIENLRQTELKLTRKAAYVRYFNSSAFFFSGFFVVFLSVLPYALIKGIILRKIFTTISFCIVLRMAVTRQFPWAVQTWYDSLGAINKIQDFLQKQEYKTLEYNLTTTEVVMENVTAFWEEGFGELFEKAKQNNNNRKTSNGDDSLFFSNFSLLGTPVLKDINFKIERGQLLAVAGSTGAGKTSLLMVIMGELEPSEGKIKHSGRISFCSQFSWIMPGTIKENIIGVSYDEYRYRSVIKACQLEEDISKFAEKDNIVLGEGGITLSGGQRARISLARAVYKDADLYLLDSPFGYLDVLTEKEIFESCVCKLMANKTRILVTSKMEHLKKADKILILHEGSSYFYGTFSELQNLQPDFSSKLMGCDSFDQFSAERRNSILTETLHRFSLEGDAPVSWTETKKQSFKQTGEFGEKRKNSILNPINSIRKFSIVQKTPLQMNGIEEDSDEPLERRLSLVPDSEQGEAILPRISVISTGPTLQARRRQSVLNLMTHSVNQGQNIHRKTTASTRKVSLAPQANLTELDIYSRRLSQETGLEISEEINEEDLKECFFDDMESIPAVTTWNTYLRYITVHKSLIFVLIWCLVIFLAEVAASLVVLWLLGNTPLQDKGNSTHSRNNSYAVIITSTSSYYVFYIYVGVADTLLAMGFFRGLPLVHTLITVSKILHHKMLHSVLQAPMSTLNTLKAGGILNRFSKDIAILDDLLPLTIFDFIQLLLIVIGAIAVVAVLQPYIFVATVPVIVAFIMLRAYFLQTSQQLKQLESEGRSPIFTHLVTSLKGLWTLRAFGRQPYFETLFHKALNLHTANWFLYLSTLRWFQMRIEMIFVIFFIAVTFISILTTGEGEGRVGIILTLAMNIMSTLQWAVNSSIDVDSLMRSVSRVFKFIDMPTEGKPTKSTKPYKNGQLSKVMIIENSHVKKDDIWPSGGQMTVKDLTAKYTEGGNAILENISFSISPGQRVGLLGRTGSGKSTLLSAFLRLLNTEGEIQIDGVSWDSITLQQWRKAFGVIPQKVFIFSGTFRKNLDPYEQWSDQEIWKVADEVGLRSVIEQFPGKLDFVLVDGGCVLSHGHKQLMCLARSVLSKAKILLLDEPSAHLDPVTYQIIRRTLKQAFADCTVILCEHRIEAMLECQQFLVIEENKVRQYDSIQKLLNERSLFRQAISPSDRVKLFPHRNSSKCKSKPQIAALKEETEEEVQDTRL

Row | Structure (SMILES) | Emax [1] | EC50 [1] | Maximum % activity (with co-corrector) [2] | EC50 [2]
1 | COc1ccc(OC)c2c1CC[C@@H]2C(=O)NS(=O)(=O)c1cccc2ncccc12 [Example I-91, (1S)-4,7-dimethoxy-N-(quinoline-5-sulfonyl)-2,3-dihydro-1H-indene-1-carboxamide] | 50 to 150% | 3 to 10 µM | +++ (≥350) | 3 to 10 µM
2 | COc1ccc(OC)c2c1CC[C@H]2C(=O)NS(=O)(=O)c1cccc2ncccc12 [Example I-92, (1R)-4,7-dimethoxy-N-(quinoline-5-sulfonyl)-2,3-dihydro-1H-indene-1-carboxamide] | ≥ 150% | 3 to 10 µM | +++ (≥350) | < 3 µM
3 | COc1ccc(C(F)(F)F)c2c1[C@@H](C(=O)NS(=O)(=O)c1cccc3ccccc13)CC2 [Example I-93, (1S)-7-methoxy-N-(naphthalene-1-sulfonyl)-4-(trifluoromethyl)-2,3-dihydro-1H-indene-1-carboxamide] | ≥ 150% | 3 to 10 µM | +++ (≥350) | 3 to 10 µM
4 | COc1ccc(C(F)(F)F)c2c1[C@H](C(=O)NS(=O)(=O)c1cccc3ccccc13)CC2 [Example I-94, (1R)-7-methoxy-N-(naphthalene-1-sulfonyl)-4-(trifluoromethyl)-2,3-dihydro-1H-indene-1-carboxamide] | ≥ 150% | < 3 µM | +++ (≥350) | < 3 µM
5 | COc1ccc(C(F)(F)F)c2c1[C@@H](C(=O)NS(=O)(=O)c1cccc3ncccc13)CC2 [Example I-95, (1S)-7-methoxy-N-(quinoline-5-sulfonyl)-4-(trifluoromethyl)-2,3-dihydro-1H-indene-1-carboxamide] | ≥ 150% | 3 to 10 µM | +++ (≥350) | < 3 µM
6 | COc1ccc(C(F)(F)F)c2c1[C@H](C(=O)NS(=O)(=O)c1cccc3ncccc13)CC2 [Example I-96, (1R)-7-methoxy-N-(quinoline-5-sulfonyl)-4-(trifluoromethyl)-2,3-dihydro-1H-indene-1-carboxamide] | ≥ 150% | < 3 µM | +++ (≥350) | < 3 µM
7 | CCC1(C(=O)NS(=O)(=O)c2cccc3cnn(C)c23)CCc2c(Cl)cccc21 (stereo not shown) [Example I-97, 4-chloro-1-ethyl-N-(1-methyl-1H-indazole-7-sulfonyl)-2,3-dihydro-1H-indene-1-carboxamide] | ≥ 150% | < 3 µM | +++ (≥350) | < 3 µM
8 | COc1ccc(Br)c2c1C(C(=O)NS(=O)(=O)c1cccc3cnn(C)c13)CC2 (stereo not shown) [Example I-98, 4-bromo-7-methoxy-N-(1-methyl-1H-indazole-7-sulfonyl)-2,3-dihydro-1H-indene-1-carboxamide] | ≥ 150% | < 3 µM | +++ (≥350) | < 3 µM
9 | COc1ccc(C2CCC2)c2c1C(C(=O)NS(=O)(=O)c1cccc3cnn(C)c13)CC2 (stereo not shown) [Example I-99, 4-cyclobutyl-7-methoxy-N-(1-methyl-1H-indazole-7-sulfonyl)-2,3-dihydro-1H-indene-1-carboxamide] | ≥ 150% | 3 to 10 µM | +++ (≥350) | < 3 µM
10 | COc1ccc(Br)c2c1C(C(=O)NS(=O)(=O)c1cccc3ncc(C)n13)CC2 (stereo not shown) [Example I-100, 4-bromo-7-methoxy-N-(3-methylimidazo[1,2-a]pyridine-5-sulfonyl)-2,3-dihydro-1H-indene-1-carboxamide] | ≥ 150% | < 3 µM | +++ (≥350) | < 3 µM
11 | COc1ccc(Br)c2c1C(C(=O)NS(=O)(=O)c1cccc3nc(C)cn13)CC2 (stereo not shown) [Example I-101, 4-bromo-7-methoxy-N-(2-methylimidazo[1,2-a]pyridine-5-sulfonyl)-2,3-dihydro-1H-indene-1-carboxamide] | ≥ 150% | < 3 µM | +++ (≥350) | < 3 µM
12 | COc1ccc(C2CCC2)c2c1C(C(=O)NS(=O)(=O)c1cccc3ccccc13)C2 (stereo not shown) [Example I-102, 2-cyclobutyl-5-methoxy-N-(naphthalene-1-sulfonyl)bicyclo[4.2.0]octa-1,3,5-triene-7-carboxamide] | ≥ 150% | < 3 µM | +++ (≥350) | < 3 µM
13 | COc1ccc(C2CCC2)c2c1[C@H](C(=O)NS(=O)(=O)c1cccc3ncccc13)CC2 [Example I-103, (1R)-4-cyclobutyl-7-methoxy-N-(quinoline-5-sulfonyl)-2,3-dihydro-1H-indene-1-carboxamide] | ≥ 150% | 3 to 10 µM | +++ (≥350) | 3 to 10 µM
14 | COc1ccc(C2CCC2)c2c1[C@@H](C(=O)NS(=O)(=O)c1cccc3ncccc13)CC2 [Example I-104, (1S)-4-cyclobutyl-7-methoxy-N-(quinoline-5-sulfonyl)-2,3-dihydro-1H-indene-1-carboxamide] | ≥ 150% | 3 to 10 µM | +++ (≥350) | < 3 µM
15 | COc1ccc(Br)c2c1C(C(=O)NS(=O)(=O)c1cccc3c(O)cccc13)CC2 (stereo not shown) [Example I-105, 4-bromo-N-(5-hydroxynaphthalene-1-sulfonyl)-7-methoxy-2,3-dihydro-1H-indene-1-carboxamide] | ≥ 150% | 3 to 10 µM | +++ (≥350) | < 3 µM
16 | COc1ccc(C)c2c1CC[C@H]2C(=O)NS(=O)(=O)c1cccc2ccccc12 [Example I-108, (1R)-4-methoxy-7-methyl-N-(naphthalene-1-sulfonyl)-2,3-dihydro-1H-indene-1-carboxamide] | ≥ 150% | 3 to 10 µM | +++ (≥350) | 3 to 10 µM
17 | COc1ccc(C)c2c1CC[C@@H]2C(=O)NS(=O)(=O)c1cccc2ccccc12 [Example I-109, (1S)-4-methoxy-7-methyl-N-(naphthalene-1-sulfonyl)-2,3-dihydro-1H-indene-1-carboxamide] | ≥ 150% | 3 to 10 µM | +++ (≥350) | < 3 µM
18 | COc1ncc(Br)c2c1C(C(=O)NS(=O)(=O)c1cccc3ccccc13)CC2 (stereo not shown) [Example I-110, 4-bromo-1-methoxy-N-(naphthalene-1-sulfonyl)-6,7-dihydro-5H-cyclopenta[c]pyridine-7-carboxamide] | ≥ 150% | 3 to 10 µM | +++ (≥350) | 3 to 10 µM
19 | COc1ncc(C2CCC2)c2c1C(C(=O)NS(=O)(=O)c1cccc3ccccc13)CC2 (stereo not shown) [Example I-111, 4-cyclobutyl-1-methoxy-N-(naphthalene-1-sulfonyl)-6,7-dihydro-5H-cyclopenta[c]pyridine-7-carboxamide] | ≥ 150% | 3 to 10 µM | +++ (≥350) | 3 to 10 µM
20 | COc1ncc(Cl)c2c1C(C(=O)NS(=O)(=O)c1cccc3ccccc13)CC2 (stereo not shown) [Example I-112, 4-chloro-1-methoxy-N-(naphthalene-1-sulfonyl)-6,7-dihydro-5H-cyclopenta[c]pyridine-7-carboxamide] | ≥ 150% | 3 to 10 µM | +++ (≥350) | 3 to 10 µM
21 | COc1ncc(Br)c2c1C(C(=O)NS(=O)(=O)c1cccc3ccccc13)CCC2 (stereo not shown) [Example I-113, 4-bromo-1-methoxy-N-(naphthalene-1-sulfonyl)-5,6,7,8-tetrahydroisoquinoline-8-carboxamide] | ≥ 150% | 3 to 10 µM | +++ (≥350) | < 3 µM
22 | COc1ccc(C2CCC2)c2c1C(C(=O)NS(=O)(=O)c1cccc3ncccc13)C2 (stereo not shown) [Example I-114, 2-cyclobutyl-5-methoxy-N-(quinoline-5-sulfonyl)bicyclo[4.2.0]octa-1,3,5-triene-7-carboxamide] | ≥ 150% | < 3 µM | +++ (≥350) | < 3 µM
23 | COc1ncc(Br)c2c1[C@@H](C(=O)NS(=O)(=O)c1cccc3ccccc13)CCC2 [Example I-115, (8S)-4-bromo-1-methoxy-N-(naphthalene-1-sulfonyl)-5,6,7,8-tetrahydroisoquinoline-8-carboxamide] | ≥ 150% | 3 to 10 µM | +++ (≥350) | < 3 µM
24 | COc1ncc(Br)c2c1[C@H](C(=O)NS(=O)(=O)c1cccc3ccccc13)CCC2 [Example I-116, (8R)-4-bromo-1-methoxy-N-(naphthalene-1-sulfonyl)-5,6,7,8-tetrahydroisoquinoline-8-carboxamide] | ≥ 150% | < 3 µM | +++ (≥350) | < 3 µM
25 | COc1ccc(C(F)(F)F)c2c1[C@@H](C(=O)NS(=O)(=O)c1cccc3nc(C)ccc13)CC2 [Example I-117, (1S)-7-methoxy-N-(2-methylquinoline-5-sulfonyl)-4-(trifluoromethyl)-2,3-dihydro-1H-indene-1-carboxamide] | ≥ 150% | 3 to 10 µM | +++ (≥350) | 3 to 10 µM

— US20180244611A1, “Modulators of the Cystic Fibrosis Transmembrane Conductance Regulator Protein and Methods of Use” (AbbVie S.à.r.l., priority 2017, published 2018)
